Marks after values point to notes of the source that are not given here.
Assays:
Assay type in all cases: in vivo
Conditions in all cases: 100 = 100% disease control
[1] = test system: Erysiphe graminis f. sp. tritici; assay: Test J: wheat powdery mildew on wheat seedlings, sprayed the day before inoculation, visual disease rating
How it was run: (§1)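 Test rate was 200 ppm, sprayed to run-off and equal to 500 g/ha, or 40 ppm where marked. The compound was first taken up in acetone at 3% of final volume and suspended in acetone/purified water (50/50) containing 250 ppm Trem® 014.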

[2] = test system: Botrytis cinerea; assay: Test C: tomato Botrytis on tomato seedlings, sprayed the day before inoculation, visual disease rating
How it was run: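 Each compound is first taken up in acetone at 3% of the final volume and then brought to the desired ppm in a 50:50 acetone–water mix with 250 ppm surfactant (polyhydric alcohol esters). Tomato seedlings receive the suspension to run-off, normally at 200 ppm, occasionally 40 ppm.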

[3] = test system: Septoria tritici; assay: Test G: wheat leaf blotch on wheat seedlings, sprayed the day before inoculation, visual disease rating
How it was run: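 Seedlings receive a protective spray of test suspension in acetone/water carrying 250 ppm surfactant, mostly at 200 ppm and at 40 ppm where marked. They are inoculated the next day, kept saturated at 24° C for 48 h, then held at 20° C for 19 days before visual scoring.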

[4] = test system: Puccinia recondita f. sp. tritici; assay: Test H: wheat leaf rust, test suspension sprayed after inoculation of wheat seedlings, visual disease rating
Text: General protocol for preparing test suspensions for Tests A-J: The test compounds were first dissolved in acetone in an amount equal to 3% of the final volume and then suspended at the desired concentration (in ppm) in acetone and purified water (50/50 mix) containing 250 ppm of the surfactant Trem® 014 (polyhydric alcohol esters). The resulting test suspensions were then used in tests A-J. Spraying a 200 ppm test suspension to the point of run-off on the test plants was the equivalent of a rate of 500 g/ha. […] Wheat seedlings were inoculated with a spore suspension of Puccinia recondita f. sp. tritici (the causal agent of wheat leaf rust) and incubated in a saturated atmosphere at 20° C. for 24 h, and then moved to a growth chamber at 20° C. for 2 days. […] A dash (-) indicates no test results. All results are for 200 ppm except where followed by “*”, which indicates 40 ppm.

[5] = test system: Septoria nodorum; assay: Test F: wheat glume blotch on wheat seedlings, sprayed the day before inoculation, visual disease rating
How it was run: as §1

[6] = test system: Alternaria solani; assay: Test D: tomato early blight, sprayed the day before inoculation, visual disease rating
How it was run: as §1

[7] = test system: Puccinia recondita f. sp. tritici; assay: Test I: wheat leaf rust on wheat seedlings, sprayed the day before inoculation, visual disease rating
How it was run: as §1

[8] = 200 ppm, 0 = no control relative to controls
[9] = 40 ppm (marked *), 0 = no control

| Structure (SMILES) | Test G disease control rating [3, 8] | Test J disease control rating [1, 8] | Test C disease control rating [2, 8] | Test H disease control rating [4, 8] | Test F disease control rating [5, 8] | Test D disease control rating [6, 8] | Test I disease control rating [7, 8] | also measured |
| --- | --- | --- | --- | --- | --- | --- | --- | --- |
| COc1cc(F)c(-c2c(Cl)nc(Cl)n2-c2ccc(C)c(I)c2)c(F)c1 [compound 647] | 95% |  |  |  |  |  |  | Test J disease control rating ([1]; 40 ppm (marked *)): 69* %; Test C disease control rating ([2]; 40 ppm (marked *)): 0* %; Test H disease control rating ([4]; 40 ppm (marked *)): 0* %; Test F disease control rating ([5]; 40 ppm (marked *)): 0* %; Test D disease control rating ([6]; 40 ppm (marked *)): 0* %; Test I disease control rating ([7]; 40 ppm (marked *)): 0* % |
| Cc1nc(C)n(-c2ccc(F)cc2)c1-c1c(F)ccc(F)c1F [compound 417] |  |  |  |  |  |  |  | Test J disease control rating [1, 9]: 94* %; Test C disease control rating [2, 9]: 100* %; Test G disease control rating [3, 9]: 89* %; Test H disease control rating [4, 9]: 9* %; Test F disease control rating [5, 9]: 0* %; Test D disease control rating [6, 9]: 99* %; Test I disease control rating [7, 9]: 9* % |
| CN(C)c1ncn(Cc2ccc(Cl)cc2)c1-c1c(F)ccc(F)c1F [compound 267] |  |  |  |  |  |  |  | Test J disease control rating ([1]; 200 ppm, 0 = no control): 97%; Test C disease control rating ([2]; 200 ppm, 0 = no control): 98%; Test G disease control rating ([3]; 200 ppm, 0 = no control): 91%; Test H disease control rating ([4]; 200 ppm, 0 = no control): 9%; Test F disease control rating ([5]; 200 ppm, 0 = no control): 0%; Test D disease control rating ([6]; 200 ppm, 0 = no control): 0%; Test I disease control rating ([7]; 200 ppm, 0 = no control): 86% |
| COc1cc(F)c(-c2c(Cl)ncn2-c2ccc(OC(F)(F)F)cc2)c(F)c1 [compound 559] | 95% | 98% | 94% | 29% | 0% | 41% | 88% |  |
| COC(=O)c1ccc(-n2cnc(Cl)c2-c2c(F)cccc2F)cc1 [compound 614] |  |  |  |  |  |  |  | Test J disease control rating ([1]; 40 ppm (marked *)): 0* %; Test C disease control rating ([2]; 40 ppm (marked *)): 89* %; Test G disease control rating ([3]; 40 ppm (marked *)): 92* %; Test H disease control rating ([4]; 40 ppm (marked *)): 0* %; Test F disease control rating ([5]; 40 ppm (marked *)): 0* %; Test D disease control rating ([6]; 40 ppm (marked *)): 0* %; Test I disease control rating ([7]; 40 ppm (marked *)): 28* % |
| Cc1nc(Br)n(-c2ccc(F)cc2Cl)c1-c1ccc(Cl)c(F)c1 [compound 325] | 96% | 99% | 94% | 0% | 51% | 91% | 97% |  |
| COc1ccc(F)c(-c2c(Cl)ncn2-c2cccc(C)c2)c1F [compound 300] | 91% | 99% | 99% | 48% | 0% | 98% | 97% |  |
| CCOc1ccc(F)c(-c2c(Cl)nc(Br)n2-c2cccc(F)c2)c1F [compound 663] | 99% | 100% | 100% | 54% | 99% | 99% | 99% |  |
| COc1cc(F)c(-c2c(Cl)nc(C)n2-c2ccc(C)c(Cl)c2)c(F)c1 [compound 601] |  |  |  |  |  |  |  | Test J disease control rating ([1]; 40 ppm (marked *)): 97* %; Test C disease control rating ([2]; 40 ppm (marked *)): 99* %; Test G disease control rating ([3]; 40 ppm (marked *)): 99* %; Test H disease control rating ([4]; 40 ppm (marked *)): 7* %; Test F disease control rating ([5]; 40 ppm (marked *)): 87* %; Test D disease control rating ([6]; 40 ppm (marked *)): 98* %; Test I disease control rating ([7]; 40 ppm (marked *)): 97* % |
| CCOc1ccc(F)c(-c2c(Cl)nc(Br)n2-c2ccc(Cl)cc2)c1F [compound 662] | 99% | 100% | 100% | 0% | 100% | 99% | 98% |  |
| COc1ccc(F)c(-c2c(Cl)nc(C)n2-c2ccc(Cl)c(F)c2)c1F [compound 393] | 95% | 100% | 99% | 79% | 99% | 100% | 99% |  |
| Fc1cc(-c2c(CCl)nc(Cl)n2-c2ccc(Cl)c(F)c2)ccn1 [compound 322] |  |  |  |  |  |  |  | Test J disease control rating [1, 9]: 0* %; Test C disease control rating [2, 9]: 62* %; Test G disease control rating [3, 9]: 0* %; Test H disease control rating [4, 9]: 63* %; Test F disease control rating [5, 9]: 0* %; Test D disease control rating [6, 9]: 0* %; Test I disease control rating [7, 9]: 28* % |
| Cc1nc(C)n(-c2ccc(Cl)c(F)c2)c1-c1c(F)ccc(F)c1Cl [compound 489] |  |  |  |  |  |  |  | Test J disease control rating ([1]; 40 ppm (marked *)): 100* %; Test C disease control rating ([2]; 40 ppm (marked *)): 96* %; Test G disease control rating ([3]; 40 ppm (marked *)): 93* %; Test H disease control rating ([4]; 40 ppm (marked *)): 0* %; Test F disease control rating ([5]; 40 ppm (marked *)): 0* %; Test D disease control rating ([6]; 40 ppm (marked *)): 98* %; Test I disease control rating ([7]; 40 ppm (marked *)): 100* % |
| COc1cc(F)c(-c2c(Cl)nc(Cl)n2-c2ccc(Cl)nc2OC)c(F)c1 [compound 514] | 100% | 99% | 99% | 0% | 73% | 99% | 93% |  |
| COc1cc(F)c(-c2c(C)nnn2-c2ccc(Cl)cc2)c(F)c1 [compound 628] | 100% | 99% | 99% | 0% | 0% | 100% | 99% |  |
| COc1cc(F)c(-c2c(Cl)nc(Br)n2-c2ccc(OC)c(Cl)c2)c(F)c1 [compound 645] |  |  |  |  |  |  |  | Test J disease control rating ([1]; 40 ppm (marked *)): 35* %; Test C disease control rating ([2]; 40 ppm (marked *)): 99* %; Test G disease control rating ([3]; 40 ppm (marked *)): 95* %; Test H disease control rating ([4]; 40 ppm (marked *)): 0* %; Test F disease control rating ([5]; 40 ppm (marked *)): 0* %; Test D disease control rating ([6]; 40 ppm (marked *)): 17* %; Test I disease control rating ([7]; 40 ppm (marked *)): 83* % |
| N#Cc1ccc(F)c(-c2c(CCl)nc(Cl)n2-c2ccc(Cl)nc2)c1F [compound 717] | 99% | 79% | 100% | 0% | 0% | 100% | 96% |  |
| COc1ccc(F)c(-c2c(Br)nc(Cl)n2-c2ccc(C)cc2)c1F [compound 517] | 98% | 100% | 100% | 0% | 96% | 100% | 99% |  |
| Fc1ccc(F)c(-c2c(Br)ncn2-c2ccc(Cl)cc2)c1Cl [compound 343] | 94% | 98% | 100% | 0% | 64% | 97% | 93% |  |
| COc1cc(F)c(-c2c(C)nc(C)n2-c2ccc(C)cc2)c(F)c1 [compound 521] |  |  |  |  |  |  |  | Test J disease control rating ([1]; 40 ppm (marked *)): 90* %; Test C disease control rating ([2]; 40 ppm (marked *)): 99* %; Test G disease control rating ([3]; 40 ppm (marked *)): 98* %; Test H disease control rating ([4]; 40 ppm (marked *)): 0* %; Test F disease control rating ([5]; 40 ppm (marked *)): 0* %; Test D disease control rating ([6]; 40 ppm (marked *)): 99* %; Test I disease control rating ([7]; 40 ppm (marked *)): 98* % |
| Cc1ncn(-c2ccc(Cl)c(F)c2)c1-c1ccccc1F [compound 318] | 91% | 87% | 100% | 0% | 0% | 16% | 9% |  |
| Cc1nc(Cl)n(-c2ccc(Cl)c(F)c2)c1-c1c(F)ccc(F)c1Cl [compound 494] |  |  |  |  |  |  |  | Test J disease control rating ([1]; 40 ppm (marked *)): 99* %; Test C disease control rating ([2]; 40 ppm (marked *)): 89* %; Test G disease control rating ([3]; 40 ppm (marked *)): 89* %; Test H disease control rating ([4]; 40 ppm (marked *)): 0* %; Test F disease control rating ([5]; 40 ppm (marked *)): 0* %; Test D disease control rating ([6]; 40 ppm (marked *)): 99* %; Test I disease control rating ([7]; 40 ppm (marked *)): 99* % |
| Cc1ncc(Cc2c(F)cc(F)cc2F)n1-c1c(Cl)cccc1Cl [compound 536] | 90% | 98% | 89% | 37% | 0% | 68% | 98% |  |
| Fc1cccc(-n2c(Br)nc(Cl)c2-c2c(F)cc(F)cc2F)c1 [compound 367] | 90% | 97% | 99% | 9% | 89% | 100% | 98% |  |

From patent US20110045101A1, “FUNGICIDAL SUBSTITUTED AZOLES” (E.I. Du Pont De Nemours and Company, priority 2009, published 2011)
